{"source": "paper PMC12106329", "about": "“Chronic alcohol intake disrupts cytochrome P450 enzyme activity in alcoholic fatty liver disease: insights into metabolic alterations and therapeutic targets” (Frontiers in Chemistry, 2025)", "key": {"[1]": {"protocol": "Rats were administered orally with the same doses of normal saline and ethanol in the NC, SC, and AM groups, following the same method. After 12 weeks, blood samples were collected from the rats at specified time points (0.5, 1, 2, 4, 6, 8, and 12 h post-dosing) during the final dosing. The blood samples were centrifuged to separate serum and then stored at −80°C for further use.\nUtilizing liquid chromatography-mass spectrometry (LC-MS) technology, the concentrations of ethanol and its metabolites in serum samples were analyzed. Analyze the pharmacokinetic parameters of the drug, such as the maximum plasma concentration (Cmax), the mean residence time (MRT) of ethanol in the body, and the bioavailability of ethanol. Data processing was conducted using specialized software XCMS, involving peak identification, integration, and normalization. Multivariate statistical analyses were performed on metabolite data to reveal metabolic differences between groups, such as principal component analysis (PCA) and orthogonal partial least squares discriminant analysis (OPLS-DA). Metabolites were annotated and compared with known databases (HMDB, METLIN) to confirm their identities. Differences in pharmacokinetic parameters among the NC, SC, and AM groups were compared to evaluate the effects of alcohol exposure and CYP450 enzymes, aiming to identify metabolite variances."}, "[2]": {"settings": "AM group, oral ethanol 12 weeks; vs NC and SC groups", "protocol": "(§1) Sixty healthy male Sprague-Dawley rats (SD-2024-RAT-045, Beijing Vital River Laboratory Animal Technology Co., Ltd., Beijing, China) weighing 200–250 g were selected. The animals were housed under a 12-h light/dark cycle at a constant laboratory temperature of 22°C ± 2°C and relative humidity of 50% ± 10%, with access to ample food and water. Sixty rats were randomly assigned to four groups (fifteen rats per group): the normal control group (NC group), the sucrose solution group (SC group), the ethanol intake group (AM group), and the ethanol intake group with simultaneous overexpression of CYP2C11 and CYP2B6 (AM + oe-CYP2C11&CYP2B6 group). The NC group received an equal volume of normal saline daily via oral gavage. The SC group was given an 18% sucrose solution (w/v) and an equal volume of normal saline instead of ethanol. The AM group started with a 5% ethanol concentration, increasing by 5% weekly to 40% while maintaining a constant 18% sucrose concentration (v/v). The plasmid vector for gene overexpression, pCMV6-AC-GFP (LM-2069, LMAI Bio, Shanghai, China), was used to construct CYP2C11 and CYP2B6 plasmids, which were developed by Sangon Biotech (Shanghai, China). After constructing the AM rat model, overexpression plasmids were transfected into lentiviruses via tail vein injection ([Liu et al., 2020]). The lentivirus injections (5 × 10^7 IU/rat) were administered twice, with a minimum interval of 2 days between injections, starting on day 7 after the initiation of sucrose treatment ([Ma et al., 2020]).\n(§2) The daily ethanol and sucrose feeding volumes were weight-adjusted for the rats, approximately 20 mL per kilogram of body weight, and continued for 12 weeks. Weekly monitoring of rat weight, observation and recording of appetite, general health status including activity level, fur condition, and behavioral changes were documented. Daily feeding amounts were meticulously recorded to accurately adjust ethanol and sucrose solution volumes. After 12 weeks, the rats were euthanized by cervical dislocation following unconsciousness induced by carbon dioxide (CO₂) inhalation. Liver tissues were dissected and stored at −80°C for subsequent histological and molecular biology analyses. Blood samples were collected, and serum was separated by centrifugation (3,000 rpm, 4°C, 15 min) and stored at −80°C for future use.\nSerum-related indicators were measured using commercial assay kits (BioSino Biotechnology and Science Inc., Beijing, China) following the manufacturer’s protocols. Specifically, serum samples, substrates, and buffer solutions were prepared according to the kit instructions. The reaction mixture was incubated at 37°C for 20 min, and absorbance was measured at 340 nm to record changes. Concentrations were calculated based on a standard curve ([Li et al., 2018])."}, "CYP2E1": {"tested_on": "CYP2E1", "settings": "AM group, oral ethanol 12 weeks", "protocol": "as §1, §2\n(§3) Liver samples were lysed using RIPA lysis buffer (P0013B, Beyotime, China). The total protein concentration was evaluated using the BCA protein assay kit (AR0146, Doctor’s Scientific Inc., China). SDS-PAGE was employed to separate total proteins, followed by protein transfer onto pre-wetted PVDF membranes with methanol (IPVH00010, Millipore Corp, United States). Non-specific protein blocking was carried out at room temperature for 3 h using TBST solution (BL315B, Boist, China) containing 5% milk. The target proteins were probed with primary antibodies overnight on […], followed by three washes with TBST/Tween 20 (0.075%) for 15 min each and subsequent incubation with labeled secondary antibodies for 1 h before washing. Protein visualization was performed using the Millipore Immobilon Western Chemiluminescent HRP substrate. The primary antibodies used in the experiments were polyclonal rabbit anti-human CYP450CYP1A2, 2B6, 2C11, 2C19, 2E1, 2D6, 3A1 (bs-20720R, Bioss, China) at a 1:300 dilution. The secondary antibodies, goat anti-mouse or anti-rabbit horseradish peroxidase conjugates, were diluted at 1:10,000 in TBST containing 5% milk. β-actin served as the loading control. The experiments were repeated three times."}, "CYP2D6": {"tested_on": "CYP2D6", "settings": "AM group, oral ethanol 12 weeks", "protocol": "as §1, §2, §3"}, "CYP2C11": {"tested_on": "CYP2C11", "settings": "AM group, oral ethanol 12 weeks", "protocol": "as §1, §2, §3"}, "CYP2C19": {"tested_on": "CYP2C19", "settings": "AM group, oral ethanol 12 weeks", "protocol": "as §1, §2, §3"}, "CYP1A2": {"tested_on": "CYP1A2", "settings": "AM group, oral ethanol 12 weeks", "protocol": "as §1, §2, §3"}, "CYP2B6": {"tested_on": "CYP2B6", "settings": "AM group, oral ethanol 12 weeks", "protocol": "as §1, §2, §3"}, "ALDH2": {"tested_on": "ALDH2", "settings": "AM group, oral ethanol 12 weeks", "protocol": "as §1, §2, §3"}, "P-gp": {"tested_on": "P-gp", "settings": "AM group, oral ethanol 12 weeks", "protocol": "as §1, §2, §3"}, "CYP3A1": {"tested_on": "CYP3A1", "settings": "AM group, oral ethanol 12 weeks; compared to NC and SC groups", "protocol": "as §1, §2, §3"}, "ROS": {"tested_on": "ROS", "settings": "AM group, oral ethanol 12 weeks; vs NC and SC groups", "method": "Reactive oxygen species (ROS) levels were detected using the fluorescent dye 2′,7′-dichlorodihydrofluorescein diacetate (DCF) (HY-D0940, Abcam, United Kingdom). […] Endothelial cells (2 × 10^4 cells) were seeded on coverslips in six-well plates and cultured overnight. The cells were treated with H2O2 (200 μM) the next day for 24 h. After treatment, the coverslips were washed with ice-cold Hank’s Balanced Salt Solution (HBSS) (H8264, Sigma Aldrich, Shanghai, China) and incubated with 100 μM DCFDA at 37°C for 30 min. After washing, the coverslips were mounted onto slides and imaged using a multiphoton confocal microscope (A1R, Nikon, United States) with a ×100 objective. Images were analyzed using Nikon Imaging Software NIS-Element."}, "rat liver": {"tested_on": "rat liver", "settings": "AM group: oral ethanol 5% rising 5% weekly to 40% in 18% sucrose, about 20 mL/kg daily, 12 weeks; vs NC and SC groups", "protocol": "as §1, with “The plasmid vector for gene overexpression, pCMV6-AC-GFP (LM-2069, LMAI Bio, Shanghai, China), was used to construct CYP2C11 and CYP2B6 plasmids, which were developed by Sangon Biotech (Shanghai, China). After constructing the AM rat model, overexpression plasmids were transfected into lentiviruses via tail vein injection ([Liu et al., 2020]). The lentivirus injections (5 × 10^7 IU/rat) were administered twice, with a minimum interval of 2 days between injections, starting on day 7 after the initiation of sucrose treatment ([Ma et al., 2020]).” left out\nThe daily ethanol and sucrose feeding volumes were weight-adjusted for the rats, approximately 20 mL per kilogram of body weight, and continued for 12 weeks. […] Daily feeding amounts were meticulously recorded to accurately adjust ethanol and sucrose solution volumes. […]"}, "[3]": {"settings": "SC group (sucrose solution) rats, oral, serum, final dosing after 12 weeks, mean"}, "[4]": {"settings": "rat serum after long-term alcohol exposure"}, "[5]": {"settings": "liver, β-actin loading control, single replicates"}}, "note": "Several values for one entry are separate records, joined by “and”; a condition that tells them apart may be missing. Identical values can stand only once."}
{"smiles": "CCO", "note": "[ethanol]", "values": [{"measurement": "T1/2", "setting": "[1]; [3]", "value": 2.35, "unit": "h"}, {"measurement": "T1/2 el", "setting": "[1]; [3]", "value": 13.5, "unit": "h"}, {"measurement": "Tmax", "setting": "[1]; [3]", "value": 4.68, "unit": "h"}, {"measurement": "AUC0-L∞, AM group vs other groups", "setting": "[1]; [4]", "value": "significantly increased"}, {"measurement": "AUC0-∞, AM group vs other groups", "setting": "[1]; [4]", "value": "significantly increased"}, {"measurement": "clearance, AM group vs other groups", "setting": "[1]; rat, after long-term alcohol exposure", "value": "lower"}, {"measurement": "MDA level", "setting": "[2]", "value": "significantly increased"}, {"measurement": "SOD level", "setting": "[2]", "value": "significantly decreased"}, {"measurement": "serum ALT level", "setting": "[2]", "value": "significantly increased"}, {"measurement": "serum AST level", "setting": "[2]", "value": "significantly increased"}, {"measurement": "total cholesterol (TC) level", "setting": "[2]", "value": "significantly increased"}, {"measurement": "triglyceride (TG) level", "setting": "[2]", "value": "significantly increased"}, {"measurement": "CYP2E1 protein expression, change", "setting": "CYP2E1; compared to NC and SC groups", "value": "higher"}, {"measurement": "CYP2E1 Relative protein expression", "setting": "CYP2E1; [5]", "value": "1.88 and 2.01 and 1.78"}, {"measurement": "CYP2D6 protein expression, change", "setting": "CYP2D6; compared to NC and SC groups", "value": "higher"}, {"measurement": "CYP2D6 Relative protein expression", "setting": "CYP2D6; [5]", "value": "3.37 and 3.45 and 2.83"}, {"measurement": "CYP2C11 protein level, change", "setting": "CYP2C11; compared to NC and SC groups", "value": "significantly lower"}, {"measurement": "CYP2C11 Relative protein expression", "setting": "CYP2C11; [5]", "value": "0.76 and 0.74 and 0.78"}, {"measurement": "CYP2C19 protein expression, change", "setting": "CYP2C19; across all groups", "value": "no significant difference"}, {"measurement": "CYP2C19 Relative protein expression", "setting": "CYP2C19; [5]", "value": "1.22 and 1.39 and 1.27"}, {"measurement": "CYP1A2 protein expression, change", "setting": "CYP1A2; compared to NC and SC groups", "value": "higher"}, {"measurement": "CYPIA2 Relative protein expression", "setting": "CYP1A2; [5]", "value": "1.50 and 1.52 and 1.65"}, {"measurement": "CYP2B6 protein level, change", "setting": "CYP2B6; compared to NC and SC groups", "value": "significantly lower"}, {"measurement": "CYP2B6 Relative protein expression", "setting": "CYP2B6; [5]", "value": "0.28 and 0.3 and 0.29"}, {"measurement": "ALDH2 protein level, change", "setting": "ALDH2; compared with NC and SC groups", "value": "increased"}, {"measurement": "ALDH2 Relative protein expression", "setting": "ALDH2; [5]", "value": "1.34 and 1.48 and 1.49"}, {"measurement": "P-gp protein expression, change", "setting": "P-gp", "value": "significant increase"}, {"measurement": "P-gp Relative protein expression", "setting": "P-gp; [5]", "value": "1.61 and 1.33 and 1.52"}, {"measurement": "CYP3A1 protein expression, change", "setting": "CYP3A1", "value": "higher"}, {"measurement": "intracellular ROS level", "setting": "ROS", "value": "significant increase"}, {"measurement": "liver histology (H&E)", "setting": "rat liver", "value": "macrovesicular steatosis"}]}
